Consider 1 compound from ChEMBL document CHEMBL6083204, “Synthesis of a celastrol derivative as a cancer stem cell inhibitor through regulation of the STAT3 pathway for treatment of ovarian cancer” (RSC Med Chem, 2024).

The subject of data set [1] is SK-OV-3. As to the kind of experiment: Antitumor activity against human SK-OV-3 cells xenografted in BALB/c mouse assessed as appearance of shrunken nucleus in tumor tissue at 2 to 5 mg/kg,ip administrated for 21 consecutive days by hematoxylin and eosin staining based assay. In kind it is functional, organism-based. The conditions noted are these: dose 2-5 mg/kg. (In general: Xenograft models place foreign cells or tissue in a host animal.)

For data set [2], the system named is Mitochondrial membrane. As to the kind of experiment: Induction of mitochondrial membrane potential loss in human A2780 cells at 0.1 uM incubated for 24 hrs by JC-1 staining based flow cytometry (reference value: 81 %). (In general: A flow cytometer gives signals particle by particle.)
Data set [3] concerns SK-OV-3. The data set can be described thus: Induction of cell cycle arrest in human SK-OV-3 cells assessed as reduction of Cyclin D1 expression at 0.2 uM incubated for 24 hrs by flow cytometry (reference value: 93.8 %). In kind it is functional. Details: scale not given: the % may be the effect or the level left.
Data set [4] in a line: Toxicity in BALB/c mouse xenografted with human SK-OV-3 cells assessed as pathological change in spleen at 2 to 5 mg/kg,ip administrated for 21 consecutive days by hematoxylin and eosin staining based assay. In kind it is organism-based. The conditions noted are these: in vivo, dose 2-5 mg/kg.
Data set [5] deals with A2780. As to the kind of experiment: Induction of apoptosis in human A2780 cells assessed as late apoptotic cells at 0.8 uM incubated for 24 hrs by Annexin V-FITC/7-AAD staining based flow cytometry (reference value: 2.1 %). In kind it is functional.
Data set [6] concerns OVCAR-3. As to the kind of experiment: Antiproliferative activity against human OVCAR-3 cells assessed as inhibition of cell growth incubated for 72 hrs by MTT assay. In kind it is functional, cell-based. The conditions noted are these: OVCAR-3, 72 h.
The target in data set [7] is Signal transducer and activator of transcription 3 (Homo sapiens) (UniProt P40763). The data set can be described thus: Inhibition of STAT3 in human SK-OV-3 cells assessed as downregulation of survivin expression at 0.1 to 0.4 uM incubated for 24 hrs by Western blotting analysis. Format: cell-based. The conditions noted are these: dose 0.1-0.4 µM. (Immunoblotting shows a protein as a band on a membrane.)
Signal transducer and activator of transcription 3 (Homo sapiens), sequence (P40763 whole entry): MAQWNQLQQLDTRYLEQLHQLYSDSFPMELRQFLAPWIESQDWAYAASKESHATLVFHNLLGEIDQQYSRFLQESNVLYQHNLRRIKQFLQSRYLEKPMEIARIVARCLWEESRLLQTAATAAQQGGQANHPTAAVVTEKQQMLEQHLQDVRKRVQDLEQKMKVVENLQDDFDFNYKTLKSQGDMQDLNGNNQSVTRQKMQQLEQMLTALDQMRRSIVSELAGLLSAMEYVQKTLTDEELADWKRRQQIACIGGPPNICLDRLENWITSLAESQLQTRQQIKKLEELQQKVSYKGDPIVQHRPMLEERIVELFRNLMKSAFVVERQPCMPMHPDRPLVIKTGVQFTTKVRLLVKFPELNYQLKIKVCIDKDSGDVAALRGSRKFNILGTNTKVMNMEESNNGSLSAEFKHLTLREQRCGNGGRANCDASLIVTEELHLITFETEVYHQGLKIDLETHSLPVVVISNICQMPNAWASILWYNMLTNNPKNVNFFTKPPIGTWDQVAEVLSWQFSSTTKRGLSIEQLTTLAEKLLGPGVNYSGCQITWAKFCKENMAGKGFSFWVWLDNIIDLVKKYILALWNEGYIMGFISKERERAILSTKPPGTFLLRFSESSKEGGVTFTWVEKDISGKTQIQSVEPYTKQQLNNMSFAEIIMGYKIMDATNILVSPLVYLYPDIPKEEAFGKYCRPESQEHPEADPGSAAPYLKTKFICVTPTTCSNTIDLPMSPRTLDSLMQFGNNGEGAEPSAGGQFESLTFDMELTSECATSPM

Data set [8] has as its system A2780. As to the kind of experiment: Induction of cell cycle arrest in human A2780 cells assessed as reduction of CDK2 expression at 0.8 uM incubated for 24 hrs by flow cytometry (reference value: 92.5 %). Format: functional. Further details: scale not given: the % may be the effect or the level left.
For data set [9], the system named is SK-OV-3. The data set can be described thus: Induction of apoptosis in human SK-OV-3 cells assessed as viable cells at 0.4 uM incubated for 24 hrs by Annexin V-FITC/7-AAD staining based flow cytometry (reference value: 94.6 %). To be noted: read-out: Activity. In kind it is functional.
Data set [10] concerns SK-OV-3. The data set can be described thus: Induction of cell cycle arrest in human SK-OV-3 cells assessed as reduction of CDK2 expression at 0.2 uM incubated for 24 hrs by flow cytometry (reference value: 94.4 %). Format: functional. Further details: scale not given: the % may be the effect or the level left.

SMILES strings stand for the structures. pIC50: −log10 of the molar value. Calls of active or inactive are those of the source. The calls are words filed in the database; no cut-off is given here.

With `CC1=C(O)C(=O)C=C2C1=CC=C1[C@@]2(C)CC[C@@]2(C)[C@@H]3C[C@](C)(C(=O)N4CCNCC4)CC[C@]3(C)CC[C@]12C`, the result in [1] was Active. The Activity in [2] is 56.4%; in data set [3], 90.3%; in data set [4], “Non-toxic”; in data set [5], 66.7%; in data set [8], 8.6%; in data set [10] it was 91.1%. In addition, in [6], the pIC50 (as a rule, −log10 of the IC50, conventionally taken in molar units) is 6.60. For the same compound, in data set [7], the inhibition result is “Active”. The viability at 0.4 µM in [9] was found to be 64.4%.
